Measured values taken from ChEMBL document CHEMBL3393049, “Syntheses and Antituberculosis Activity of 1,3-Benzothiazinone Sulfoxide and Sulfone Derived from BTZ043” (ACS Med Chem Lett, 2015).
≈ marks a conversion by molar mass, not a printed value.

Experiments:
[1] = tested on: Mycolicibacterium smegmatis; experiment: Antimycobacterial activity against Mycobacterium smegmatis str. MC2 155 assessed as reduction in bacterial growth incubated for 18 to 20 hrs by broth microdilution method; assay type: functional
Mycolicibacterium vaccae = experiment: Antimycobacterial activity against Mycobacterium vaccae IMET10670 assessed as reduction in bacterial growth incubated for 18 to 20 hrs by broth microdilution method; assay type: functional
Mycolicibacterium aurum = experiment: Antimycobacterial activity against Mycobacterium aurum SB66 assessed as reduction in bacterial growth incubated for 18 to 20 hrs by broth microdilution method; assay type: functional
Staphylococcus aureus = experiment: Antibacterial activity against Staphylococcus aureus SG511 assessed as reduction in bacterial growth incubated for 18 to 20 hrs by broth microdilution method; assay type: functional
Micrococcus luteus = experiment: Antibacterial activity against Micrococcus luteus ATCC 10240 assessed as reduction in bacterial growth incubated for 18 to 20 hrs by broth microdilution method; assay type: functional
Pseudomonas aeruginosa = experiment: Antibacterial activity against Pseudomonas aeruginosa KW799/61 assessed as reduction in bacterial growth incubated for 18 to 20 hrs by broth microdilution method; assay type: functional
Acinetobacter baumannii = experiment: Antibacterial activity against Acinetobacter baumannii ATCC 17961 assessed as reduction in bacterial growth incubated for 18 to 20 hrs by broth microdilution method; assay type: functional
[2] = tested on: Mycobacterium tuberculosis; experiment: Antimycobacterial activity against Mycobacterium tuberculosis H37Rv ATCC 27294 assessed as reduction in bacterial growth incubated for 7 days under 7H12 medium by MABA method; assay type: functional; conditions: H37Rv ATCC 27294, 168 h
[3] = tested on: Mycobacterium tuberculosis; experiment: Antimycobacterial activity against Mycobacterium tuberculosis H37Rv ATCC 27294 assessed as reduction in bacterial growth incubated for 7 days under GAS medium by MABA method; assay type: functional; conditions: H37Rv ATCC 27294, 168 h
Mycobacterium marinum = experiment: Antimycobacterial activity against Mycobacterium marinum ATCC 927 assessed as reduction in bacterial growth incubated for 5 days by MABA method; assay type: functional; conditions: ATCC 927, 120 h
Mycobacterium kansasii = experiment: Antimycobacterial activity against Mycobacterium kansasii ATCC 12478 assessed as reduction in bacterial growth incubated for 6 days by MABA method; assay type: functional; conditions: ATCC 12478, 144 h
[4] = Cytotoxicity against human PC3 cells after 72 hrs by crystal violet biomass reduction assay; assay type: cell-based, PC-3
[5] = Cytotoxicity against human MCF7 cells after 72 hrs by crystal violet biomass reduction assay; assay type: cell-based
[6] = Cytotoxicity against human HeLa cells after 72 hrs by crystal violet biomass reduction assay; assay type: cell-based

| SMILES | MIC [1] [µM] | MIC (Mycolicibacterium vaccae) [µM] | MIC (Mycolicibacterium aurum) [µM] | MIC (Staphylococcus aureus; read-out: MIC) [µM] | MIC (Micrococcus luteus) [µM] | MIC (Pseudomonas aeruginosa) [µM] | MIC (Acinetobacter baumannii) [µM] | MIC [2] [µM] | MIC [3] [µM] | MIC (Mycobacterium marinum) [µM] | MIC (Mycobacterium kansasii) [µM] | CC50 at 72 h [4] [µM] | CC50 at 72 h [5] [µM] | CC50 at 72 h [6] [µM] | MIC (Staphylococcus aureus) [µM] |
| --- | --- | --- | --- | --- | --- | --- | --- | --- | --- | --- | --- | --- | --- | --- | --- |
| C[C@H]1COC2(CCN(c3nc(=O)c4cc(C(F)(F)F)cc([N+](=O)[O-])c4[s+]3[O-])CC2)O1 (some centres not stated) | < 0.013 | < 0.013 | 3.13 (≈ 1.4 µg/mL) | 12.5 (≈ 5.59 µg/mL) | 50 (≈ 22.4 µg/mL) | > 200 | > 200 | 0.06 (≈ 0.0268 µg/mL) | < 0.02 | 0.19 (≈ 0.085 µg/mL) | 0.3 (≈ 0.134 µg/mL) | 15 | > 20 | > 20 | – |
| C[C@H]1COC2(CCN(C3=NC(=O)c4cc(C(F)(F)F)cc([N+](=O)[O-])c4S3(=O)=O)CC2)O1 | > 0.5 | < 0.013 | > 200 | – | > 200 | > 200 | > 200 | 0.48 (≈ 0.222 µg/mL) | 0.51 (≈ 0.236 µg/mL) | > 1 | > 1 | > 20 | > 20 | > 20 | 200 (≈ 92.7 µg/mL) |
| C[C@H]1COC2(CCN(c3nc(=O)c4cc(C(F)(F)F)cc([N+](=O)[O-])c4s3)CC2)O1 [BTZ-043] | 0.002 (≈ 0.000863 µg/mL) | 0.002 (≈ 0.000863 µg/mL) | > 200 | – | > 200 | > 200 | > 200 | < 0.02 | < 0.02 | 0.037 (≈ 0.016 µg/mL) | < 0.02 | > 20 | > 20 | > 20 | > 200 |
| O=C(O)c1cn(C2CC2)c2cc(N3CCNCC3)c(F)cc2c1=O [CIPROFLOXACIN] | 0.32 (≈ 0.106 µg/mL) | 0.32 (≈ 0.106 µg/mL) | 0.02 (≈ 0.00663 µg/mL) | 0.32 (≈ 0.106 µg/mL) | 1.25 (≈ 0.414 µg/mL) | 0.156 (≈ 0.0517 µg/mL) | 0.156 (≈ 0.0517 µg/mL) | – | – | – | – | – | – | – | – |
| NNC(=O)c1ccncc1 [ISONIAZID] | – | – | – | – | – | – | – | 0.1 (≈ 0.0137 µg/mL) | 0.03 (≈ 0.00411 µg/mL) | > 8 | 3.86 (≈ 0.529 µg/mL) | – | – | – | – |
| CO[C@H]1/C=C/O[C@@]2(C)Oc3c(C)c(O)c4c(O)c(c(/C=N/N5CCN(C)CC5)c(O)c4c3C2=O)NC(=O)/C(C)=C\C=C\[C@H](C)[C@H](O)[C@@H](C)[C@@H](O)[C@@H](C)[C@H](OC(C)=O)[C@@H]1C [RIFAMPIN] | – | – | – | – | – | – | – | 0.05 (≈ 0.0411 µg/mL) | 0.04 (≈ 0.0329 µg/mL) | 0.23 (≈ 0.189 µg/mL) | 0.1 (≈ 0.0823 µg/mL) | – | – | – | – |
